Test results reported in patent publication US20070299043A1, “Anti-scarring drug combinations and use thereof” (priority 2005, published 2007).
In brackets after ≈: the same amount, converted by molar mass.

Key:
[1] = tested on: E. coli UB1005 C498; assay: MIC by microtitre broth dilution; assay type: cell-based; details: for Minimum inhibitory concentration: Gram−, wt, Mueller Hinton broth, 37° C, 24h
Protocol: (§1) MIC assays were conducted essentially as described by Amsterdam, D. 1996, “Susceptibility testing of antimicrobials in liquid media”, p. 52-111, in Loman, V., ed. Antibiotics in laboratory medicine, 4th ed. Williams and Wilkins, Baltimore, Md.

[2] = tested on: multiple species of bacteria and fungi; details: surface drug concentration is to be in excess of this value; cited from earlier work
[3] = Increase of the potency of an immunosuppressive agent
[4] = cited from earlier work; for solubility in alcohol/ethanol: alcohol or ethanol
[5] = tested on: K. pneumoniae ATCC13883 C238; assay: MIC by microtitre broth dilution; assay type: cell-based; details: Gram−, wt; Mueller Hinton broth, 37° C, 24h
Protocol: as §1

[6] = tested on: S. pyogenes C721; assay: MIC by microtitre broth dilution; assay type: cell-based; details: Gram+, wt; Todd Hewitt broth, 37° C, 24h
Protocol: as §1

[7] = tested on: P. aeruginosa PAE/K799 H187; assay: MIC by microtitre broth dilution; assay type: cell-based; details: Gram−, wt; Mueller Hinton broth, 37° C, 24h
Protocol: as §1

[8] = tested on: S. aureus ATCC25923 C622; assay: MIC by microtitre broth dilution; assay type: cell-based; details: Gram+, wt; Mueller Hinton broth, 37° C, 24h
Protocol: as §1

[9] = tested on: S. epidermidis C621; assay: MIC by microtitre broth dilution; assay type: cell-based; details: Gram+, wt; Mueller Hinton broth, 37° C, 24h
Protocol: as §1

Compound | Minimum inhibitory concentration [1] | Minimum inhibitory concentration [5] | Minimum inhibitory concentration [6] | Minimum inhibitory concentration [7] | Minimum inhibitory concentration [8] | further results
Sc1ncc2[nH]cnc2n1 [2-mercaptopurine] | N |  |  |  |  | 
O=c1[nH]cc(F)c(=O)[nH]1 [5-fluorouracil, 5-Fluorouracil] |  |  |  |  |  | MIC ([1]; Escherichia coli, UB1005C498, 24 h, read-out: Minimum inhibitory concentration): 1 µM (≈ 0.13 µg/mL); concentration known to be lethal to multiple species of bacteria and fungi [2]: > 10^−4 M
Sc1ncnc2nc[nH]c12 [6-mercaptopurine] | N |  |  |  |  | 
Nc1ccn([C@@H]2O[C@H](CO)[C@@H](O)[C@@H]2O)c(=O)n1 [Cytarabine, cytarabine] | N |  |  |  |  | 
CCN(CC)C(C)CN1c2ccccc2Sc2ccccc21 (stereo not drawn) [Ethopropazine, ethopropazine] |  |  |  |  |  | potency of an immunosuppressive agent [3]: increases the potency
CN(C)C(=O)C(CCN1CCC(O)(c2ccc(Cl)cc2)CC1)(c1ccccc1)c1ccccc1 [Loperamide] |  |  |  |  |  | potency of an immunosuppressive agent [3]: increase the potency
Nc1ccc(/N=N/c2ccccc2)c(N)n1 [Phenazopyridine base, phenazopyridine] |  |  |  |  |  | solubility in alcohol/ethanol [4]: slightly soluble in water and alcohol; solubility in water ([4]; water): slightly soluble in water and alcohol
NC(=O)c1ncn([C@@H]2O[C@H](CO)[C@@H](O)[C@H]2O)n1 [Ribavirin, ribavirin] |  |  |  |  |  | solubility in alcohol/ethanol [4]: only slightly soluble in alcohol
CC[C@@]1(O)C(=O)OCc2c1cc1n(c2=O)Cc2cc3ccccc3nc2-1 [camptothecin] | N | N | N | N | N | 
N.N.[Cl][Pt][Cl] [cisplatin] | N | N | N | 10^−4 Molar | N | Minimum inhibitory concentration [9]: N
COc1cccc2c1C(=O)c1c(O)c3c(c(O)c1C2=O)C[C@@](O)(C(=O)CO)C[C@@H]3O[C@H]1C[C@H](N)[C@H](O)[C@H](C)O1 [doxorubicin, Doxorubicin] | 10^−4 Molar | 10^−6 Molar | 10^−7 Molar | 10^−5 Molar | 10^−5 Molar | Minimum inhibitory concentration [9]: 10^−6 Molar; concentration known to be lethal to multiple species of bacteria and fungi [2]: > 10^−4 M
COc1cc([C@@H]2c3cc4c(cc3[C@@H](O[C@@H]3O[C@@H]5CO[C@@H](C)O[C@H]5[C@H](O)[C@H]3O)[C@H]3COC(=O)[C@H]23)OCO4)cc(OC)c1O [etoposide] | N |  |  |  |  | 
NC(=O)NO [hydroxyurea] | N | N | 10^−4 Molar | 10^−4 Molar | N | Minimum inhibitory concentration [9]: N
CNCCCC12CCC(c3ccccc31)c1ccccc12 [maprotiline] |  |  |  |  |  | potency of an immunosuppressive agent [3]: increases the potency
CN(Cc1cnc2nc(N)nc(N)c2n1)c1ccc(C(=O)N[C@@H](CCC(=O)O)C(=O)O)cc1 [methotrexate] | N | 10^−6 Molar | 10^−6 Molar | N | 10^−5 Molar | Minimum inhibitory concentration [9]: N
O=C1c2c(O)ccc(O)c2C(=O)c2c(NCCNCCO)ccc(NCCNCCO)c21 [mitoxantrone] | 10^−5 Molar |  |  |  |  | concentration known to be lethal to multiple species of bacteria and fungi [2]: > 10^−5 M
Oc1cc(Cl)ccc1Oc1ccc(Cl)cc1Cl [triclosan] |  |  |  |  |  | potency of an immunosuppressive agent [3]: increases the potency
Nc1ncnc2c1ccn2[C@@H]1O[C@H](CO)[C@@H](O)[C@H]1O [tubercidin] | N | N | N | N | N | Minimum inhibitory concentration [9]: N
